# Test results taken from PubChem BioAssay (NCI).
#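 Cultured in 96-well plates, cells were exposed to test compound for 48 hours across five concentrations. Abbreviation: GI50, concentration required for 50% inhibition of growth. Definition used: TGI = concentration required for complete inhibition of growth.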
# What was measured:
# Experiment in all cases: inhibition of tumour cell growth, NCI panel, 48 h
# OVCAR-5 ovarian = test system: OVCAR-5 ovarian
# MCF7 breast = test system: MCF7 breast
# OVCAR-3 ovarian = test system: OVCAR-3 ovarian
# RPMI-8226 leukemia = test system: RPMI-8226 leukemia
# OVCAR-4 ovarian = test system: OVCAR-4 ovarian
# KM12 colon = test system: KM12 colon
# SK-MEL-28 melanoma = test system: SK-MEL-28 melanoma
# T-47D breast = test system: T-47D breast
# M14 melanoma = test system: M14 melanoma
# UACC-257 melanoma = test system: UACC-257 melanoma
# SK-MEL-2 melanoma = test system: SK-MEL-2 melanoma
# SF-539 CNS = test system: SF-539 CNS
# NCI-H226 lung = test system: NCI-H226 lung
# 786-0 renal = test system: 786-0 renal
# MDA-MB-231 breast = test system: MDA-MB-231 breast
# UACC-62 melanoma = test system: UACC-62 melanoma
# DU-145 prostate = test system: DU-145 prostate
# A498 renal = test system: A498 renal
# NCI/ADR-RES ovarian = test system: NCI/ADR-RES ovarian
# PC-3 prostate = test system: PC-3 prostate
# SNB-19 CNS = test system: SNB-19 CNS
# BT-549 breast = test system: BT-549 breast
# MDA-MB-435 = test system: MDA-MB-435
# LOX IMVI melanoma = test system: LOX IMVI melanoma
# SK-MEL-5 melanoma = test system: SK-MEL-5 melanoma
# IGROV1 ovarian = test system: IGROV1 ovarian
# RXF 393 renal = test system: RXF 393 renal
# NCI-H522 lung = test system: NCI-H522 lung
# TK-10 renal = test system: TK-10 renal
# HCC-2998 colon = test system: HCC-2998 colon
# HS 578T breast = test system: HS 578T breast
# UO-31 renal = test system: UO-31 renal
# HOP-92 NSCLC = test system: HOP-92 NSCLC
# SW-620 colon = test system: SW-620 colon
# SNB-75 CNS = test system: SNB-75 CNS
# SF-295 CNS = test system: SF-295 CNS
# NCI-H460 lung = test system: NCI-H460 lung
# HCT-15 colon = test system: HCT-15 colon
# SN12C renal = test system: SN12C renal
# ACHN renal = test system: ACHN renal
# CAKI-1 renal = test system: CAKI-1 renal
# SK-OV-3 ovarian = test system: SK-OV-3 ovarian
# SF-268 CNS = test system: SF-268 CNS
# HCT-116 colon = test system: HCT-116 colon
# U251 CNS = test system: U251 CNS
# COLO 205 colon = test system: COLO 205 colon
# HOP-62 NSCLC = test system: HOP-62 NSCLC
# NCI-H23 lung = test system: NCI-H23 lung
# MALME-3M melanoma = test system: MALME-3M melanoma
# A549 NSCLC = test system: A549 NSCLC
# OVCAR-8 ovarian = test system: OVCAR-8 ovarian
# HT29 colon = test system: HT29 colon
# K-562 leukemia = test system: K-562 leukemia
# EKVX NSCLC = test system: EKVX NSCLC
# MOLT-4 leukemia = test system: MOLT-4 leukemia
# CCRF-CEM leukemia = test system: CCRF-CEM leukemia
smiles,measurement,setting,value
Fc1cc(-c2csc3n[nH]c(=S)n23)c(Cl)cc1Cl,GI50,OVCAR-5 ovarian,41 µM
same,TGI,OVCAR-5 ovarian,> 100 µM
same,GI50,MCF7 breast,48.4 µM
same,TGI,MCF7 breast,> 100 µM
same,GI50,OVCAR-3 ovarian,34.9 µM
same,TGI,OVCAR-3 ovarian,> 100 µM
same,GI50,RPMI-8226 leukemia,23.5 µM
same,TGI,RPMI-8226 leukemia,> 100 µM
same,GI50,OVCAR-4 ovarian,27.7 µM
same,TGI,OVCAR-4 ovarian,73.9 µM
same,GI50,KM12 colon,32.6 µM
same,TGI,KM12 colon,> 100 µM
same,GI50,SK-MEL-28 melanoma,48.2 µM
same,TGI,SK-MEL-28 melanoma,> 100 µM
same,GI50,T-47D breast,53.3 µM
same,TGI,T-47D breast,> 100 µM
same,GI50,M14 melanoma,39.9 µM
same,TGI,M14 melanoma,> 100 µM
same,GI50,UACC-257 melanoma,93.5 µM
same,TGI,UACC-257 melanoma,> 100 µM
same,GI50,SK-MEL-2 melanoma,26.7 µM
same,TGI,SK-MEL-2 melanoma,76.5 µM
same,GI50,SF-539 CNS,24.7 µM
same,TGI,SF-539 CNS,41 µM
same,GI50,NCI-H226 lung,19.6 µM
same,TGI,NCI-H226 lung,59.7 µM
same,GI50,786-0 renal,22.2 µM
same,TGI,786-0 renal,42.7 µM
same,GI50,MDA-MB-231 breast,14.5 µM
same,TGI,MDA-MB-231 breast,40.1 µM
same,GI50,UACC-62 melanoma,18.6 µM
same,TGI,UACC-62 melanoma,48.4 µM
same,GI50,DU-145 prostate,32.5 µM
same,TGI,DU-145 prostate,> 100 µM
same,GI50,A498 renal,19 µM
same,TGI,A498 renal,47.1 µM
same,GI50,NCI/ADR-RES ovarian,37.6 µM
same,TGI,NCI/ADR-RES ovarian,> 100 µM
same,GI50,PC-3 prostate,31.4 µM
same,TGI,PC-3 prostate,> 100 µM
same,GI50,SNB-19 CNS,47 µM
same,TGI,SNB-19 CNS,> 100 µM
same,GI50,BT-549 breast,36.4 µM
same,TGI,BT-549 breast,> 100 µM
same,GI50,MDA-MB-435,55.8 µM
same,TGI,MDA-MB-435,> 100 µM
same,GI50,LOX IMVI melanoma,37.2 µM
same,TGI,LOX IMVI melanoma,> 100 µM
same,GI50,SK-MEL-5 melanoma,55.7 µM
same,TGI,SK-MEL-5 melanoma,> 100 µM
same,GI50,IGROV1 ovarian,58.9 µM
same,TGI,IGROV1 ovarian,> 100 µM
same,GI50,RXF 393 renal,21.6 µM
same,TGI,RXF 393 renal,63 µM
same,GI50,NCI-H522 lung,39.2 µM
same,TGI,NCI-H522 lung,> 100 µM
same,GI50,TK-10 renal,38.5 µM
same,TGI,TK-10 renal,> 100 µM
same,GI50,HCC-2998 colon,25.8 µM
same,TGI,HCC-2998 colon,70.1 µM
same,GI50,HS 578T breast,28.8 µM
same,TGI,HS 578T breast,92.7 µM
same,GI50,UO-31 renal,43 µM
same,TGI,UO-31 renal,> 100 µM
same,GI50,HOP-92 NSCLC,21.1 µM
same,TGI,HOP-92 NSCLC,55.3 µM
same,GI50,SW-620 colon,> 100 µM
same,TGI,SW-620 colon,> 100 µM
same,GI50,SNB-75 CNS,22.1 µM
same,TGI,SNB-75 CNS,50 µM
same,GI50,SF-295 CNS,17.8 µM
same,TGI,SF-295 CNS,50.5 µM
same,GI50,NCI-H460 lung,35.4 µM
same,TGI,NCI-H460 lung,> 100 µM
same,GI50,HCT-15 colon,32.8 µM
same,TGI,HCT-15 colon,> 100 µM
same,GI50,SN12C renal,22.4 µM
same,TGI,SN12C renal,58.8 µM
same,GI50,ACHN renal,23.7 µM
same,TGI,ACHN renal,57.5 µM
same,GI50,CAKI-1 renal,33 µM
same,TGI,CAKI-1 renal,> 100 µM
same,GI50,SK-OV-3 ovarian,35.6 µM
same,TGI,SK-OV-3 ovarian,> 100 µM
same,GI50,SF-268 CNS,35.5 µM
same,TGI,SF-268 CNS,> 100 µM
same,GI50,HCT-116 colon,27.3 µM
same,TGI,HCT-116 colon,88.8 µM
same,GI50,U251 CNS,17.1 µM
same,TGI,U251 CNS,35.4 µM
same,GI50,COLO 205 colon,41.7 µM
same,TGI,COLO 205 colon,> 100 µM
same,GI50,HOP-62 NSCLC,20.1 µM
same,TGI,HOP-62 NSCLC,38.8 µM
same,GI50,NCI-H23 lung,23.5 µM
same,TGI,NCI-H23 lung,78.8 µM
same,GI50,MALME-3M melanoma,41.1 µM
same,TGI,MALME-3M melanoma,> 100 µM
same,GI50,A549 NSCLC,42 µM
same,TGI,A549 NSCLC,> 100 µM
same,GI50,OVCAR-8 ovarian,44.5 µM
same,TGI,OVCAR-8 ovarian,> 100 µM
same,GI50,HT29 colon,65.8 µM
same,TGI,HT29 colon,> 100 µM
same,GI50,K-562 leukemia,32.2 µM
same,TGI,K-562 leukemia,> 100 µM
same,GI50,EKVX NSCLC,21.1 µM
same,TGI,EKVX NSCLC,66 µM
CCOc1c(OC)cc(C2c3cc4c(c(OCC)c3CC3COC(=O)C32)OCO4)cc1OC (stereo not drawn),TGI,OVCAR-5 ovarian,15.9 µM
same,TGI,MCF7 breast,> 100 µM
same,TGI,MOLT-4 leukemia,7.69 µM
same,TGI,OVCAR-3 ovarian,5.14 µM
same,TGI,RPMI-8226 leukemia,59.3 µM
same,TGI,OVCAR-4 ovarian,> 100 µM
same,TGI,KM12 colon,11.3 µM
same,TGI,SK-MEL-28 melanoma,> 100 µM
same,TGI,T-47D breast,> 100 µM
same,TGI,M14 melanoma,43.3 µM
same,TGI,UACC-257 melanoma,49.1 µM
same,TGI,SK-MEL-2 melanoma,> 100 µM
same,TGI,SF-539 CNS,4.91 µM
same,TGI,CCRF-CEM leukemia,30.1 µM
same,TGI,NCI-H226 lung,46.9 µM
same,TGI,786-0 renal,22.2 µM
same,TGI,MDA-MB-231 breast,6.47 µM
same,TGI,UACC-62 melanoma,2.27 µM
same,TGI,DU-145 prostate,12.1 µM
same,TGI,A498 renal,67.4 µM
same,TGI,NCI/ADR-RES ovarian,7.17 µM
same,TGI,PC-3 prostate,> 100 µM
same,TGI,SNB-19 CNS,> 100 µM
same,TGI,BT-549 breast,64 µM
same,TGI,MDA-MB-435,0.898 µM
same,TGI,LOX IMVI melanoma,14 µM
same,TGI,SK-MEL-5 melanoma,14.5 µM
same,TGI,IGROV1 ovarian,80.5 µM
same,TGI,RXF 393 renal,> 100 µM
same,TGI,NCI-H522 lung,16.8 µM
same,TGI,TK-10 renal,69.6 µM
same,TGI,HS 578T breast,21.9 µM
same,TGI,UO-31 renal,27.3 µM
same,TGI,HOP-92 NSCLC,> 100 µM
same,TGI,SW-620 colon,> 100 µM
same,TGI,SNB-75 CNS,> 100 µM
same,TGI,SF-295 CNS,3.97 µM
same,TGI,NCI-H460 lung,> 100 µM
same,TGI,HCT-15 colon,2.68 µM
same,TGI,SN12C renal,6.9 µM
same,TGI,ACHN renal,20.9 µM
same,TGI,CAKI-1 renal,55.7 µM
same,TGI,SK-OV-3 ovarian,> 100 µM
same,TGI,SF-268 CNS,92.6 µM
same,TGI,HCT-116 colon,11.5 µM
same,TGI,U251 CNS,11.6 µM
same,TGI,COLO 205 colon,6.98 µM
same,TGI,HOP-62 NSCLC,17.8 µM
same,TGI,NCI-H23 lung,5.9 µM
same,TGI,MALME-3M melanoma,79.8 µM
same,TGI,A549 NSCLC,14.2 µM
same,TGI,OVCAR-8 ovarian,6.38 µM
same,TGI,HT29 colon,10.4 µM
same,TGI,K-562 leukemia,19.4 µM
same,TGI,EKVX NSCLC,> 100 µM
